Experimental data published in patent publication US20240226343A1, “NEUROPEPTIDE Y1 RECEPTOR (NPY1R) TARGETED THERAPEUTICS AND USES THEREOF” (RADIONETICS ONCOLOGY, INC., priority 2022, published 2024).

Target: T1, hNPY1R (Homo sapiens, UniProt P25929)
T1 construct: SK-N-MC cells endogenously expressing the NPY1R receptor; endogenous in cells; host or cells: SK-N-MC cells (crude membrane fractions)
T1 sequence (P25929 1-384): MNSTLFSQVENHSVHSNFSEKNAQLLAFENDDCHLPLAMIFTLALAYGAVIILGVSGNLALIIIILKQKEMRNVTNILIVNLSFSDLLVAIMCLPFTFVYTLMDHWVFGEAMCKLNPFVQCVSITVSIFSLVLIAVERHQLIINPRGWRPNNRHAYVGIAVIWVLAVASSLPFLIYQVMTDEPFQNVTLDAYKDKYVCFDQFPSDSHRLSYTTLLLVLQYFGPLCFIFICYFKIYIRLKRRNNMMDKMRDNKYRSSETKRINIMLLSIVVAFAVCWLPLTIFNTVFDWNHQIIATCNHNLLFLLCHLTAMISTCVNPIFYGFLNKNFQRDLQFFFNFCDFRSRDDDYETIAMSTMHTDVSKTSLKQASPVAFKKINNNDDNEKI
Test: NPY1R binding assay: SK-N-MC membranes, [125I]-Peptide YY (human) competition
Conditions: data obtained after 120 minutes at rt; SK-N-MC membranes; [125I]-Peptide YY; read-out: hNPY.R binding Ki* ††

| Structure (SMILES) | Ki |
| --- | --- |
| CCC(=O)NCCNC(=O)/N=C(/N)NCCC[C@@H](NC(=O)C(c1ccccc1)c1ccc(NCCNC(=O)[C@H](N)CCCNC(=O)CN2CCN(CC(=O)O)CCN(CC(=O)O)CCN(CC(=O)O)CC2)cc1)C(=O)NCc1ccc(O)cc1 (single isomer, unassigned) [Compound 143A] | < 10 nM |
| CCC(=O)NCCNC(=O)/N=C(/N)NCCC[C@@H](NC(=O)C(c1ccccc1)c1ccc(NCCNC(=O)[C@H](N)CCCNC(=O)CN2CCN(CC(=O)O)CCN(CC(=O)O)CCN(CC(=O)O)CC2)cc1)C(=O)NCc1ccc(O)cc1 (single isomer, unassigned) [Compound 143B] | < 10 nM |
| CCNC(=O)/N=C(/N)NCCC[C@@H](NC(=O)[C@@H](c1ccccc1)c1ccc(NCCCNC(=O)[C@H](N)CCCCNC(=O)CN2CCN(CC(=O)O)CCN(CC(=O)O)CCN(CC(=O)O)CC2)cc1)C(=O)NCc1ccc(O)cc1 (single isomer, unassigned) [Compound 144A] | < 10 nM |
| CCC(=O)NCCNC(=O)/N=C(/N)NCCC[C@@H](NC(=O)C(c1ccccc1)c1ccc(NCCNC(=O)[C@H](N)CCCNC(=O)CN2CCN(CC(=O)O)CCN(CC(=O)O)CCN(CC(=O)O)CC2)cc1)C(=O)NCc1ccc(O)cc1 (single isomer, unassigned) [Compound 144B] | < 10 nM |
| CCC(=O)NCCNC(=O)/N=C(/N)NCCC[C@@H](NC(=O)C(c1ccccc1)c1cccc(OCCCCNC(=O)[C@@H](CCCN)NC(=O)CCNC(=O)CN2CCN(CC(=O)O)CCN(CC(=O)O)CCN(CC(=O)O)CC2)c1)C(=O)NCc1ccc(O)cc1 (single isomer, unassigned) [Compound 147A] | < 10 nM |
| CCC(=O)NCCNC(=O)/N=C(/N)NCCC[C@@H](NC(=O)C(c1ccccc1)c1cccc(OCCCCNC(=O)[C@@H](CCCN)NC(=O)CCNC(=O)CN2CCN(CC(=O)O)CCN(CC(=O)O)CCN(CC(=O)O)CC2)c1)C(=O)NCc1ccc(O)cc1 (single isomer, unassigned) [Compound 147B] | < 10 nM |
| CCC(=O)NCCNC(=O)/N=C(/N)NCCC[C@@H](NC(=O)C(c1ccccc1)c1ccc(NCCCNc2c(NCCCCCCNC(=O)CN3CCN(CC(=O)O)CCN(CC(=O)O)CCN(CC(=O)O)CC3)c(=O)c2=O)cc1)C(=O)NCc1ccc(O)cc1 (single isomer, unassigned) [Compound 156] | < 10 nM |
| CCC(=O)NCCNC(=O)/N=C(/N)NCCC[C@@H](NC(=O)C(c1ccccc1)c1ccc(NCCCNC(=O)NOCCNC(=O)CN2CCN(CC(=O)O)CCN(CC(=O)O)CCN(CC(=O)O)CC2)cc1)C(=O)NCc1ccc(O)cc1 (single isomer, unassigned) [Compound 160] | 10 to 100 nM |
| CCC(=O)NCCNC(=O)/N=C(/N)NCCC[C@@H](NC(=O)C(c1ccccc1)c1cccc(OCCCCNC(=O)CCCCCNC(=O)CN2CCN(CC(=O)O)CCN(CC(=O)O)CCN(CC(=O)O)CC2)c1)C(=O)NCc1c(F)cc(O)cc1F (single isomer, unassigned) [Compound 161A] | < 10 nM |
| CCC(=O)NCCNC(=O)/N=C(/N)NCCC[C@@H](NC(=O)C(c1ccccc1)c1cccc(OCCCCNC(=O)CCCCCNC(=O)CN2CCN(CC(=O)O)CCN(CC(=O)O)CCN(CC(=O)O)CC2)c1)C(=O)NCc1c(F)cc(O)cc1F (single isomer, unassigned) [Compound 161B] | < 10 nM |
| CCC(=O)NCCNC(=O)/N=C(/N)NCCC[C@@H](NC(=O)C(c1ccccc1)c1cccc(OCCCCNC(=O)CCNC(=O)CN2CCN(CC(=O)O)CCN(CC(=O)O)CCN(CC(=O)O)CC2)c1)C(=O)NCc1c(F)cc(O)cc1F (single isomer, unassigned) [Compound 162A] | < 10 nM |
| CCC(=O)NCCNC(=O)/N=C(/N)NCCC[C@@H](NC(=O)C(c1ccccc1)c1cccc(OCCCCNC(=O)CCNC(=O)CN2CCN(CC(=O)O)CCN(CC(=O)O)CCN(CC(=O)O)CC2)c1)C(=O)NCc1c(F)cc(O)cc1F (single isomer, unassigned) [Compound 162B] | < 10 nM |
| CCC(=O)NCCNC(=O)/N=C(/N)NCCC[C@@H](NC(=O)C(c1ccccc1)c1cccc(OCCCCNC(=O)NOCCNC(=O)CN2CCN(CC(=O)O)CCN(CC(=O)O)CCN(CC(=O)O)CC2)c1)C(=O)NCc1c(F)cc(O)cc1F (single isomer, unassigned) [Compound 163A] | < 10 nM |
| CCC(=O)NCCNC(=O)/N=C(/N)NCCC[C@@H](NC(=O)C(c1ccccc1)c1cccc(OCCCCNC(=O)NOCCNC(=O)CN2CCN(CC(=O)O)CCN(CC(=O)O)CCN(CC(=O)O)CC2)c1)C(=O)NCc1c(F)cc(O)cc1F (single isomer, unassigned) [Compound 163B] | < 10 nM |

Now from value to compound:

| Ki | Structure (SMILES) |
| --- | --- |
| < 10 nM | CCC(=O)NCCNC(=O)/N=C(/N)NCCC[C@@H](NC(=O)C(c1ccccc1)c1cccc(OCCCCNC(=O)[C@H](N)CCCCNC(=O)c2ccc(CNC(=O)CN3CCN(CC(=O)O)CCN(CC(=O)O)CCN(CC(=O)O)CC3)cc2)c1)C(=O)NCc1ccc(O)cc1 (single isomer, unassigned) [Compound 142B] |
| < 10 nM | CCC(=O)NCCNC(=O)/N=C(/N)NCCC[C@@H](NC(=O)C(c1ccccc1)c1ccc(NCCCNC(=O)[C@H](N)CCC(=O)NCCN(C)CCNC(=O)CN2CCN(CC(=O)O)CCN(CC(=O)O)CCN(CC(=O)O)CC2)cc1)C(=O)NCc1ccc(O)cc1 (single isomer, unassigned) [Compound 145A] |
| < 10 nM | CCC(=O)NCCNC(=O)/N=C(/N)NCCC[C@@H](NC(=O)C(c1ccccc1)c1ccc(NCCCNC(=O)[C@H](N)CCC(=O)NCCN(C)CCNC(=O)CN2CCN(CC(=O)O)CCN(CC(=O)O)CCN(CC(=O)O)CC2)cc1)C(=O)NCc1ccc(O)cc1 (single isomer, unassigned) [Compound 145B] |
| < 10 nM | CCC(=O)NCCNC(=O)/N=C(/N)NCCC[C@@H](NC(=O)C(c1ccccc1)c1ccc(NCCCNC(=O)[C@H](N)CCCNC(=O)CN2CCC(NC(=O)CN3CCN(CC(=O)O)CCN(CC(=O)O)CCN(CC(=O)O)CC3)CC2)cc1)C(=O)NCc1ccc(O)cc1 (single isomer, unassigned) [Compound 146A] |
| < 10 nM | CCC(=O)NCCNC(=O)/N=C(/N)NCCC[C@@H](NC(=O)C(c1ccccc1)c1ccc(NCCCNC(=O)[C@H](N)CCCNC(=O)CN2CCC(NC(=O)CN3CCN(CC(=O)O)CCN(CC(=O)O)CCN(CC(=O)O)CC3)CC2)cc1)C(=O)NCc1ccc(O)cc1 (single isomer, unassigned) [Compound 146B] |
| < 10 nM | CCNC(=O)/N=C(/N)NCCC[C@@H](NC(=O)C(c1ccccc1)c1cccc(OCCCCNC(=O)[C@@H](Cc2ccc(-c3ccccc3)cc2)NC(=O)[C@@H](CN)NC(=O)CN2CCN(CC(=O)O)CCN(CC(=O)O)CCN(CC(=O)O)CC2)c1)C(=O)NCc1ccc(O)cc1 (single isomer, unassigned) [Compound 148A] |
| < 10 nM | CCNC(=O)/N=C(/N)NCCC[C@@H](NC(=O)C(c1ccccc1)c1cccc(OCCCCNC(=O)[C@@H](Cc2ccc(-c3ccccc3)cc2)NC(=O)[C@@H](CN)NC(=O)CN2CCN(CC(=O)O)CCN(CC(=O)O)CCN(CC(=O)O)CC2)c1)C(=O)NCc1ccc(O)cc1 (single isomer, unassigned) [Compound 148B] |
| < 10 nM | CCNC(=O)/N=C(/N)NCCC[C@@H](NC(=O)C(c1ccccc1)c1ccc(NCCCNC(=O)[C@H](N)CCCNC(=O)[C@@H](Cc2ccc(-c3ccccc3)cc2)NC(=O)CN2CCN(CC(=O)O)CCN(CC(=O)O)CCN(CC(=O)O)CC2)cc1)C(=O)NCc1ccc(O)cc1 (single isomer, unassigned) [Compound 151] |
| < 10 nM | CCNC(=O)/N=C(/N)NCCC[C@@H](NC(=O)C(c1ccccc1)c1ccc(NCCCNC(=O)[C@@H](CCCNC(=N)N)NC(=O)[C@@H](Cc2ccc(-c3ccccc3)cc2)NC(=O)CN2CCN(CC(=O)O)CCN(CC(=O)O)CCN(CC(=O)O)CC2)cc1)C(=O)NCc1ccc(O)cc1 (single isomer, unassigned) [Compound 152] |
| < 10 nM | CCC(=O)NCCNC(=O)/N=C(/N)NCCC[C@@H](NC(=O)C(c1ccccc1)c1ccc(NCCCNC(=O)[C@@H](CCCNC(=O)CN2CCN(CC(=O)O)CCN(CC(=O)O)CCN(CC(=O)O)CC2)NC(=O)CCCc2ccc(I)cc2)cc1)C(=O)NCc1ccc(O)cc1 (single isomer, unassigned) [Compound 153] |
| < 10 nM | CCC(=O)NCCNC(=O)/N=C(/N)NCCC[C@@H](NC(=O)C(c1ccccc1)c1ccc(NCCCNC(=O)CCCCCNC(=O)CN2CCN(CC(=O)O)CCN(CC(=O)O)CCN(CC(=O)O)CC2)cc1)C(=O)NCc1ccc(O)cc1 (single isomer, unassigned) [Compound 154] |
| < 10 nM | CCC(=O)NCCNC(=O)/N=C(/N)NCCC[C@@H](NC(=O)C(c1ccccc1)c1ccc(NCCCNC(=O)CN(C)C(=O)CN(C)C(=O)CN(C)C(=O)CN2CCN(CC(=O)O)CCN(CC(=O)O)CCN(CC(=O)O)CC2)cc1)C(=O)NCc1ccc(O)cc1 (single isomer, unassigned) [Compound 159] |
| < 10 nM | CCC(=O)NCCNC(=O)/N=C(/N)NCCC[C@@H](NC(=O)C(c1ccccc1)c1cccc(OCCCCNC(=O)C[C@H]2NC(=O)[C@@H](CCCNC(=O)CN3CCN(CC(=O)O)CCN(CC(=O)O)CCN(CC(=O)O)CC3)NC2=O)c1)C(=O)NCc1c(F)cc(O)cc1F (single isomer, unassigned) [Compound 164A] |
| < 10 nM | CCC(=O)NCCNC(=O)/N=C(/N)NCCC[C@@H](NC(=O)C(c1ccccc1)c1cccc(OCCCCNC(=O)C[C@H]2NC(=O)[C@@H](CCCNC(=O)CN3CCN(CC(=O)O)CCN(CC(=O)O)CCN(CC(=O)O)CC3)NC2=O)c1)C(=O)NCc1c(F)cc(O)cc1F (single isomer, unassigned) [Compound 164B] |
| < 10 nM | CCC(=O)NCCNC(=O)/N=C(/N)NCCC[C@@H](NC(=O)C(c1ccccc1)c1cccc(OCCCCNC(=O)[C@@H](CO)NC(=O)CCNC(=O)CN2CCN(CC(=O)O)CCN(CC(=O)O)CCN(CC(=O)O)CC2)c1)C(=O)NCc1c(F)cc(O)cc1F (single isomer, unassigned) [Compound 165A] |
